The record followed here is ChEMBL document CHEMBL1201862, “PubChem BioAssay data set” (2004).

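Test compounds were applied to cells in 96-well plates for 48 hours at 5 doses. GI50 is the concentration that inhibits growth by half.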 Calls of active or inactive are those of the source. No stated cut-off is given here; in the data, active = GI50 up to about 1.1 µM and inactive = higher.

Test systems include CCRF-CEM; DU-145; HCC 2998; HOP-62; HOP-92; HT-29; Hs-578T; KM12; MDA-MB-231; NCI-H23; NCI-H522; NCI/ADR-RES; RXF 393; SF-539; SK-MEL-2; SK-MEL-5; SK-OV-3; SW-620; TK-10; UO-31.
Common to all, as to assay: DTP human tumour cell line panel, 48 h

Usually GI50 stands for the concentration at which growth is held to half of that of the control. As to `O=c1[nH]c(=O)n([C@H]2C[C@H](O)[C@@H](CO)O2)cc1Br` [BROXURIDINE], the GI50 is > 64.4 µM (inactive) with CCRF-CEM; > 100 µM (inactive) in the assay on DU-145; > 60.3 µM (inactive) with HCC 2998; > 100 µM (inactive) in the assay on HOP-62; > 100 µM (inactive) in the assay with HOP-92; > 100 µM (inactive) with HT-29. Moreover, the GI50 in the assay with Hs-578T was > 100 µM (inactive); in the assay with KM12, > 100 µM (inactive); with MDA-MB-231 it was > 100 µM (inactive); in the assay on NCI-H23 it was > 100 µM (inactive); in the assay with NCI-H522 it was > 78.3 µM (inactive); in the assay with NCI/ADR-RES it was > 100 µM (inactive). Further, the GI50 in the assay with RXF 393, in the assay on SF-539, with SK-MEL-2, in the assay on SK-MEL-5, with SK-OV-3 and in the assay on SW-620 was > 100 µM (inactive) each time. For the same compound, the GI50 in the assay with TK-10 and in the assay on UO-31 was > 100 µM (inactive) each time.

In the case of `CCOC(=O)C(N)CSC(=O)NC` (stereo not given), the GI50 was 49.3 µM (inactive) in the assay with CCRF-CEM; 268 µM (inactive) in the assay on DU-145; 271 µM (inactive) in the assay with HCC 2998; 154 µM (inactive) in the assay on HOP-62; 98.4 µM (inactive) in the assay on HOP-92; 78.7 µM (inactive) in the assay on HT-29. For the same compound, the GI50 in the assay with Hs-578T was 204 µM (inactive); in the assay with KM12, 175 µM (inactive); in the assay on MDA-MB-231 it was 99.1 µM (inactive); in the assay with NCI-H23, 112 µM (inactive); in the assay with NCI-H522, 102 µM (inactive); with NCI/ADR-RES it was 89.9 µM (inactive). The GI50 in the assay with RXF 393 is 105 µM (inactive); in the assay with SF-539, > 83.6 µM (inactive); in the assay with SK-MEL-2, 63.2 µM (inactive); with SK-MEL-5, 116 µM (inactive); with SK-OV-3, 286 µM (inactive); in the assay on SW-620 it was 80.4 µM (inactive). The GI50 in the assay on TK-10 was 247 µM (inactive); with UO-31, 259 µM (inactive).

As for `COc1cccc2c1C(=O)c1c(O)c3c(c(O)c1C2=O)C[C@@](O)(/C(C)=N/NC(=O)c1ccc(Cl)c(Cl)c1)C[C@@H]3OC1CC(N)C(O)C(C)O1` (stereo not given in full), the GI50 was 0.0299 µM (active) with CCRF-CEM; 0.251 µM (active) in the assay on DU-145; 0.146 µM (active) in the assay with HCC 2998; 0.147 µM (active) with HOP-62; 0.424 µM (active) in the assay on HOP-92; 0.071 µM (active) in the assay on HT-29. In addition, the GI50 with Hs-578T was 0.528 µM (active); with KM12, 0.205 µM (active); in the assay on MDA-MB-231 it was 0.711 µM (active); with NCI-H23 it was 0.0592 µM (active); in the assay on NCI-H522, 0.223 µM (active); in the assay with NCI/ADR-RES, 0.532 µM (active). In addition, the GI50 in the assay with RXF 393 was 1.15 µM (inactive); in the assay on SF-539, 0.183 µM (active); in the assay with SK-MEL-2, 0.718 µM (active); in the assay with SK-MEL-5 it was 0.116 µM (active); in the assay on SK-OV-3 it was 0.44 µM (active); in the assay with SW-620 it was 0.0923 µM (active). The GI50 in the assay with TK-10 is 0.225 µM (active); in the assay on UO-31, 1.08 µM (active).

Turning to `COc1ccc(/C=C2\N=C3Sc4c([nH]cnc4=O)N3C2=O)cc1`, the GI50 is > 100 µM (inactive) in the assay on CCRF-CEM; > 100 µM (inactive) in the assay on DU-145; 13.1 µM (inactive) in the assay on HCC 2998; > 100 µM (inactive) with HOP-62; > 100 µM (inactive) with HOP-92; > 100 µM (inactive) in the assay on HT-29. Also, the GI50 in the assay with Hs-578T, in the assay on KM12, in the assay with MDA-MB-231, in the assay with NCI-H23, in the assay on NCI-H522 and in the assay with NCI/ADR-RES was > 100 µM (inactive) throughout. For the same compound, the GI50 with RXF 393, in the assay with SF-539, with SK-MEL-2, with SK-MEL-5, with SK-OV-3 and in the assay on SW-620 was > 100 µM (inactive) in each case. The GI50 in the assay on TK-10 and with UO-31 was > 100 µM (inactive) throughout.

For the compound `O=c1cc(-c2ccccc2)[nH]c2cc(F)c(F)cc12`, the GI50 was 0.379 µM (active) in the assay on CCRF-CEM; 0.472 µM (active) with DU-145; 5.11 µM (inactive) in the assay with HCC 2998; 1.33 µM (inactive) in the assay on HOP-62; 0.789 µM (active) with HOP-92; 0.998 µM (active) in the assay with HT-29. Further, the GI50 in the assay on Hs-578T is 0.423 µM (active); with KM12 it was 0.326 µM (active); in the assay on MDA-MB-231 it was 1.44 µM (inactive); with NCI-H23 it was 0.653 µM (active); in the assay on NCI-H522, 0.385 µM (active); with NCI/ADR-RES, 0.425 µM (active). Also, the GI50 in the assay with RXF 393 is 0.23 µM (active); in the assay on SF-539 it was 0.342 µM (active); in the assay with SK-MEL-2 it was 3.01 µM (inactive); in the assay on SK-MEL-5, 0.197 µM (active); with SK-OV-3, 0.575 µM (active); with SW-620, 0.355 µM (active). For the same compound, the GI50 with TK-10 was 3.83 µM (inactive); with UO-31 it was 0.805 µM (active).

As for `O=C(O)CC(CC(=O)O)C(=O)O` [TRICARBALLYLIC ACID], the GI50 in the assay on CCRF-CEM, in the assay with DU-145, in the assay with HCC 2998, in the assay with HOP-62, in the assay with HOP-92 and in the assay with HT-29 was > 100 µM (inactive) throughout. In addition, the GI50 in the assay on Hs-578T, in the assay on KM12, in the assay with MDA-MB-231, in the assay with NCI-H23, in the assay with NCI-H522 and with NCI/ADR-RES was > 100 µM (inactive) each time. The GI50 in the assay with RXF 393, in the assay on SF-539, in the assay on SK-MEL-2, in the assay on SK-MEL-5, in the assay on SK-OV-3 and in the assay on SW-620 was > 100 µM (inactive) throughout. Further, the GI50 in the assay on TK-10 and in the assay on UO-31 was > 100 µM (inactive) each time.
